Target: Glutamate receptor ionotropic NMDA 2B (Rattus norvegicus) (UniProt Q00960)
Test: In vitro inhibition of NMDA responses at NR1A/2B receptor expressed in Xenopus oocytes

Sequence of Glutamate receptor ionotropic NMDA 2B (Rattus norvegicus) (Q00960 whole entry, looked up): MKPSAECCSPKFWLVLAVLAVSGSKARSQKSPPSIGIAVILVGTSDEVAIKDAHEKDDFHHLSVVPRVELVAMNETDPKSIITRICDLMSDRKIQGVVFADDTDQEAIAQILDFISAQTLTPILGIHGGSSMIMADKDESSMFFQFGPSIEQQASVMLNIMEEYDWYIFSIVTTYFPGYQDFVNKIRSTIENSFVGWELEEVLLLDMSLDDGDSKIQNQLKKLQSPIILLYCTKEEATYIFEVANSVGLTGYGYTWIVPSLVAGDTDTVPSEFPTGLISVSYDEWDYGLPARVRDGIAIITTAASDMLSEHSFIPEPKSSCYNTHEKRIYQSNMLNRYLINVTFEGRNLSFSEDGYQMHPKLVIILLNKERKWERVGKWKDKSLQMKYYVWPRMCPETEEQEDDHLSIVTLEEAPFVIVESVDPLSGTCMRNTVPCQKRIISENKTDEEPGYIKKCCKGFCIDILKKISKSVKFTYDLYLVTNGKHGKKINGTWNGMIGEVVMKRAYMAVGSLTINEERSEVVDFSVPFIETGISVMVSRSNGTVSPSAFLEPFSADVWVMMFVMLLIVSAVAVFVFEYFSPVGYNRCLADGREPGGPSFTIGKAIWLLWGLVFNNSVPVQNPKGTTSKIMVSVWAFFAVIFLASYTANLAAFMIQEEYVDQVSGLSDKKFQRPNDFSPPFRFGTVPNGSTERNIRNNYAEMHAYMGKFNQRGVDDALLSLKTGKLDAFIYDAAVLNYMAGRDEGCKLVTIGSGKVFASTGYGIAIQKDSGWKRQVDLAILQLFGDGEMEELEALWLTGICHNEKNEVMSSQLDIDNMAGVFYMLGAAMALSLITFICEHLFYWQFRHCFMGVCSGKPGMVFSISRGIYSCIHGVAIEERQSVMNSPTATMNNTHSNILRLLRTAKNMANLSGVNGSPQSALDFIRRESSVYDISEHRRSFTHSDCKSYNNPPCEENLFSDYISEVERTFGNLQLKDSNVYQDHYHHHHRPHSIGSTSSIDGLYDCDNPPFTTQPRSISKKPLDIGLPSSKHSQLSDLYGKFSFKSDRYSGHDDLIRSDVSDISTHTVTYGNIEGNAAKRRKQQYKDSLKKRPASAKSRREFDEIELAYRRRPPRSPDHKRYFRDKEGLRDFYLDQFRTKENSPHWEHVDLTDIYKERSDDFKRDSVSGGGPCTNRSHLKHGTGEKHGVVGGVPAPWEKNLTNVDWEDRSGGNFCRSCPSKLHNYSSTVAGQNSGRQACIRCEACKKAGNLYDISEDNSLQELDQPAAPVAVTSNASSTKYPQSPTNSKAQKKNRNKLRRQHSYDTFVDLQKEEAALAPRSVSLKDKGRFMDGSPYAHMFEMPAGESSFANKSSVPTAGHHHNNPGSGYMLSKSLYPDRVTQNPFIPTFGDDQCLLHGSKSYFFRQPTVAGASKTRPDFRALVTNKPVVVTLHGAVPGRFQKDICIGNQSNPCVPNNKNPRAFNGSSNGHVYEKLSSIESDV

Oc1ccc(OCCN2CCC(Cc3ccccc3)CC2)cc1 [4-[2-(4-Benzyl-piperidin-1-yl)-ethoxy]-phenol]
IC50: 25 nM

— BindingDB's records for doi:10.1021/jm990537r (Cocensys, 2000)
